Data: patent US6376666B1 (Nauchno-Issledovatelsky Institut Farmakologii Rossiiskoi …, priority 1994, dated 2002)

Columns and labels:
Format in all cases: in vivo
Balb/c mice = assay: open-field test, Balb/c mice (passive type of emotional-stress reaction); parameters: key to Total activity: sum of all locomotor activity counts (crossings + rearings) in 3 min; conditions: for Central activity (crossings) / Peripheral activity (crossings) / Total activity / Number of defecations / Vertical activity (rearings): M ± mx
Method in brief: (§1)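 Male mice, 20-22 g, dosed i.p. in water 30 min before a 3-min open-field test after 1 min in darkness; peripheral, central, rearing and total activity plus defecations recorded; Student t-test. Anxiolysis read as Balb/c activation, sedation as C57B1/6 inhibition.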

C57B1/6 mice = assay: open-field test, C57B1/6 mice (active type of emotional-stress reaction); parameters: key to Total activity: sum of all locomotor activity counts (crossings + rearings) in 3 min; conditions: for Central activity (crossings) / Number of defecations / Peripheral activity (crossings) / Total activity / Vertical activity (rearings): M ± mx
Method in brief: as §1

cats = assay: hemodynamics and activity of intact heart in cats under anesthesia; conditions: cats i.v., doses of 0,5 mg/kg-2,0 mg/kg
Method: The effects of compounds on the hemodynamics and activity of intact heart were studied in cats under anesthesia. The experiments were carried out under conditions of open chest. The phase curve of aortic blood flow was the main index of cardiac activity. The compounds were administered i.v. in physiological solution. The t-Student' test was used to estimate the statistical significance.

`CCOc1ccc2nc(SCCN3CCOCC3)[nH]c2c1` [XII, 2-[2-(Morpholino)ethylthio]-5-ethoxybenzimidazole] was tested, and the “Central activity (crossings)” value (Balb/c mice; 0.001 mg/kg i.p.) was 1.6 ± 1.6, the “Peripheral activity (crossings)” value (Balb/c mice; 0.001 mg/kg i.p.) was 28.9 ± 8.8 and the Total activity (Balb/c mice; 0.001 mg/kg i.p.) was 30.3 ± 9.4. The “Central activity (crossings)” value (Balb/c mice; 0.01 mg/kg i.p.) was 2.6 ± 1.4, the Number of defecations (Balb/c mice; 0.01 mg/kg i.p.) was 3.1 ± 0.6 and the “Peripheral activity (crossings)” value (Balb/c mice; 0.01 mg/kg i.p.) was 79.8 ± 9.3. For the same molecule, the Total activity (Balb/c mice; 0.01 mg/kg i.p.) was 83.2 ± 11.3, the “Vertical activity (rearings)” value (Balb/c mice; 0.01 mg/kg i.p.) was 0.9 ± 0.6 and the Number of defecations (Balb/c mice; 0.05 mg/kg i.p.) was 2.0 ± 0.8. For the same molecule, the “Peripheral activity (crossings)” value (Balb/c mice; 0.05 mg/kg i.p.) was 37.1 ± 6.7, the Total activity (Balb/c mice; 0.05 mg/kg i.p.) was 37.1 ± 6.7 and the Number of defecations (Balb/c mice; 0.1 mg/kg i.p.) was 2.4 ± 0.7. The “Peripheral activity (crossings)” value (Balb/c mice; 0.1 mg/kg i.p.) was 70.6 ± 10.6, the Total activity (Balb/c mice; 0.1 mg/kg i.p.) was 73.7 ± 12.7 and the “Central activity (crossings)” value (Balb/c mice; 0.5 mg/kg i.p.) was 2.9 ± 1.5. For the same molecule, the Number of defecations (Balb/c mice; 0.5 mg/kg i.p.) was 1.6 ± 0.8, the “Peripheral activity (crossings)” value (Balb/c mice; 0.5 mg/kg i.p.) was 77.6 ± 14.2 and the Total activity (Balb/c mice; 0.5 mg/kg i.p.) was 80.5 ± 15.7. The “Central activity (crossings)” value (Balb/c mice; 1.0 mg/kg i.p.) was 0.5 ± 0.3, the Number of defecations (Balb/c mice; 1.0 mg/kg i.p.) was 2.8 ± 0.9 and the “Peripheral activity (crossings)” value (Balb/c mice; 1.0 mg/kg i.p.) was 66.3 ± 11.1. The Total activity (Balb/c mice; 1.0 mg/kg i.p.) was 66.8 ± 11.4, the “Central activity (crossings)” value (Balb/c mice; 5.0 mg/kg i.p.) was 2.3 ± 1.5 and the Number of defecations (Balb/c mice; 5.0 mg/kg i.p.) was 0.8 ± 0.5. The “Peripheral activity (crossings)” value (Balb/c mice; 5.0 mg/kg i.p.) was 43.0 ± 4.4, the Total activity (Balb/c mice; 5.0 mg/kg i.p.) was 45.3 ± 5.9 and the “Central activity (crossings)” value (Balb/c mice; 10.0 mg/kg i.p.) was 0.9 ± 0.3. For the same molecule, the Number of defecations (Balb/c mice; 10.0 mg/kg i.p.) was 2.0 ± 0.7, the “Peripheral activity (crossings)” value (Balb/c mice; 10.0 mg/kg i.p.) was 54.8 ± 8.3 and the Total activity (Balb/c mice; 10.0 mg/kg i.p.) was 55.7 ± 8.6. The “Central activity (crossings)” value (Balb/c mice; 30.0 mg/kg i.p.) was 1.1 ± 0.7, the Number of defecations (Balb/c mice; 30.0 mg/kg i.p.) was 4.5 ± 1.4 and the “Peripheral activity (crossings)” value (Balb/c mice; 30.0 mg/kg i.p.) was 50.5 ± 7.9. The Total activity (Balb/c mice; 30.0 mg/kg i.p.) was 51.7 ± 8.7, the “Vertical activity (rearings)” value (Balb/c mice; 30.0 mg/kg i.p.) was 0.1 ± 0.1 and the Number of defecations (Balb/c mice; 50.0 mg/kg i.p.) was 1.6 ± 0.5. The “Peripheral activity (crossings)” value (Balb/c mice; 50.0 mg/kg i.p.) was 11.0 ± 1.6, the Total activity (Balb/c mice; 50.0 mg/kg i.p.) was 11.0 ± 1.6 and the “effect on the behavior (locomotor activity) of Balb/c mice in open-field test, in words” value (Balb/c mice; i.p., screening) was “able to activate the behavior of Balb/c mice”. The “Central activity (crossings)” value (C57B1/6 mice; 0.1 mg/kg i.p.) was 18.3 ± 1.9, the Number of defecations (C57B1/6 mice; 0.1 mg/kg i.p.) was 1.3 ± 0.3 and the “Peripheral activity (crossings)” value (C57B1/6 mice; 0.1 mg/kg i.p.) was 92.9 ± 5.4. The Total activity (C57B1/6 mice; 0.1 mg/kg i.p.) was 123.6 ± 8.4, the “Vertical activity (rearings)” value (C57B1/6 mice; 0.1 mg/kg i.p.) was 12.5 ± 1.1 and the “Central activity (crossings)” value (C57B1/6 mice; 1.0 mg/kg i.p.) was 20.4 ± 2.3. The Number of defecations (C57B1/6 mice; 1.0 mg/kg i.p.) was 0.5 ± 0.5, the “Peripheral activity (crossings)” value (C57B1/6 mice; 1.0 mg/kg i.p.) was 86.6 ± 4.3 and the Total activity (C57B1/6 mice; 1.0 mg/kg i.p.) was 123.5 ± 8.4. The “Vertical activity (rearings)” value (C57B1/6 mice; 1.0 mg/kg i.p.) was 16.5 ± 1.8, the “Central activity (crossings)” value (C57B1/6 mice; 10.0 mg/kg i.p.) was 36.0 ± 4.9 and the Number of defecations (C57B1/6 mice; 10.0 mg/kg i.p.) was 0.6 ± 0.6. The “Peripheral activity (crossings)” value (C57B1/6 mice; 10.0 mg/kg i.p.) was 86.6 ± 10.9, the Total activity (C57B1/6 mice; 10.0 mg/kg i.p.) was 140.2 ± 19.0 and the “Vertical activity (rearings)” value (C57B1/6 mice; 10.0 mg/kg i.p.) was 17.6 ± 3.2. For the same molecule, the “Central activity (crossings)” value (C57B1/6 mice; 20.0 mg/kg i.p.) was 23.4 ± 4.9, the Number of defecations (C57B1/6 mice; 20.0 mg/kg i.p.) was 1.8 ± 0.6 and the “Peripheral activity (crossings)” value (C57B1/6 mice; 20.0 mg/kg i.p.) was 86.4 ± 4.0. For the same molecule, the Total activity (C57B1/6 mice; 20.0 mg/kg i.p.) was 127.2 ± 11.6, the “Vertical activity (rearings)” value (C57B1/6 mice; 20.0 mg/kg i.p.) was 17.4 ± 2.7 and the “Central activity (crossings)” value (C57B1/6 mice; 30.0 mg/kg i.p.) was 26.3 ± 10.2. For the same molecule, the Number of defecations (C57B1/6 mice; 30.0 mg/kg i.p.) was 0.1 ± 0.1, the “Peripheral activity (crossings)” value (C57B1/6 mice; 30.0 mg/kg i.p.) was 53.0 ± 5.7 and the Total activity (C57B1/6 mice; 30.0 mg/kg i.p.) was 87.9 ± 17.5. For the same molecule, the “Vertical activity (rearings)” value (C57B1/6 mice; 30.0 mg/kg i.p.) was 8.3 ± 4.6, the “Central activity (crossings)” value (C57B1/6 mice; 50.0 mg/kg i.p.) was 13.9 ± 5.3 and the Number of defecations (C57B1/6 mice; 50.0 mg/kg i.p.) was 0.5 ± 0.3. The “Peripheral activity (crossings)” value (C57B1/6 mice; 50.0 mg/kg i.p.) was 67.1 ± 11.9, the Total activity (C57B1/6 mice; 50.0 mg/kg i.p.) was 90.1 ± 19.8 and the “Vertical activity (rearings)” value (C57B1/6 mice; 50.0 mg/kg i.p.) was 9.1 ± 2.6. For the same molecule, the “effect on locomotor activity of C57B1/6 mice in open-field test, in words” value (C57B1/6 mice; i.p., doses that activate Balb/c mice) was “without any changes in locomotor activity” and the “effect on heart rate, in words” value (cats) was “small and short bradycardia”.
